{
  "source": "patent US11260023B2",
  "about": "“Topical compositions containing rofecoxib and methods of making and using the same” (BRIORI BIOTECH, LLC, priority 2020, dated 2022)",
  "origin": "cited, not measured here",
  "data": [
    {"conditions": "of the solvent; cited from earlier work", "units": {"Δd (dispersion)": "MPa^1/2", "Δh (hydrogen bonding)": "MPa^1/2", "Δp (polar)": "MPa^1/2"}, "values": [
      {"smiles": "CC1=CCC(C(C)(C)O)CC1", "note": "(stereo not drawn) [alpha-Terpineol 95.0+ %, alpha-terpineol]", "logP": 1.8, "Δd (dispersion)": 17.1, "Δh (hydrogen bonding)": 7.6, "Δp (polar)": 3.6},
      {"smiles": "C[S+](C)[O-]", "note": "[Dimethyl Sulfoxide, dimethyl sulfoxide]", "logP": "−0.6", "Δd (dispersion)": 18.4, "Δh (hydrogen bonding)": 10.2, "Δp (polar)": 16.4},
      {"smiles": "CCOC(C)=O", "note": "[Ethyl Acetate, ethyl acetate]", "logP": 0.76, "Δd (dispersion)": 15.8, "Δh (hydrogen bonding)": 7.2, "Δp (polar)": 5.3},
      {"smiles": "CC(O)CO", "note": "(centres unmarked) [Propylene Glycol, MP, propylene glycol]", "logP": "−0.9", "Δd (dispersion)": 16.8, "Δh (hydrogen bonding)": 23.3, "Δp (polar)": 9.4},
      {"smiles": "CC(=O)OCC(C)OC(C)=O", "note": "(centres unmarked) [Propylene Glycol Diacetate, propylene glycol diacetate]", "logP": 0.7},
      {"smiles": "CCCCCCCCCCCCCC(=O)OC(C)C", "note": "[Isopropyl tetradecanoate, isopropyl tetradecanoate]", "Δd (dispersion)": 16.2, "Δh (hydrogen bonding)": 3.7, "Δp (polar)": 2.4},
      {"smiles": "CC(C)=O", "note": "[Acetone, acetone]", "logP": "−0.1", "Δd (dispersion)": 15.5, "Δh (hydrogen bonding)": 7, "Δp (polar)": 10.4},
      {"smiles": "CC1COC(=O)O1", "note": "(centres unmarked) [Propylene Carbonate, propylene carbonate]", "logP": "−0.4", "Δd (dispersion)": 20, "Δh (hydrogen bonding)": 4.1, "Δp (polar)": 18},
      {"smiles": "CN1CCCC1=O", "note": "[N-Methyl-2-Pyrrolidone, N-methyl-2-pyrrolidone]", "logP": 0.5, "Δd (dispersion)": 18, "Δh (hydrogen bonding)": 7.2, "Δp (polar)": 12.3},
      {"smiles": "OCc1ccccc1", "note": "[Benzyl Alcohol, benzyl alcohol]", "Δd (dispersion)": 18.4, "Δh (hydrogen bonding)": 13.7, "Δp (polar)": 6.3},
      {"smiles": "CCOC(=O)CCCCCCCCC(=O)OCC", "note": "[Diethyl Sebacate, diethyl sebacate]", "logP": 3.5, "Δd (dispersion)": 16, "Δh (hydrogen bonding)": 4.7, "Δp (polar)": 4},
      {"smiles": "CC(C)OC(=O)CCCCC(=O)OC(C)C", "note": "[Diisopropyl Adipate, diisopropyl adipate]", "logP": 2.2},
      {"smiles": "CO[C@H]1CO[C@H]2[C@@H]1OC[C@H]2OC", "note": "[Dimethyl Isosorbide, isosorbide dimethyl ether]", "logP": "−0.6", "Δd (dispersion)": 17.6, "Δh (hydrogen bonding)": 7.5, "Δp (polar)": 7.1},
      {"smiles": "CC(O)CC(C)(C)O", "note": "(centres unmarked) [2-Methyl-pentane-2,4-diol, 2-methylpentane-2,4-diol]", "logP": 0.3, "Δd (dispersion)": 16.4, "Δh (hydrogen bonding)": 20.6, "Δp (polar)": 8},
      {"smiles": "CCOCCOCCO", "note": "[Diethylene Glycol Monoethyl Ether, diethylene glycol monoethyl ether]", "logP": "−0.5", "Δd (dispersion)": 16.2, "Δh (hydrogen bonding)": 14.3, "Δp (polar)": 9.2}
    ]},
    {"conditions": "after 24 hours after 25 hours; cited from earlier work", "units": {"amount of diclofenac that penetrates into the blood": "mg"}, "values": [
      {"smiles": "O=C(O)Cc1ccccc1Nc1c(Cl)cccc1Cl", "note": "[diclofenac]", "amount of diclofenac that penetrates into the blood": 0.067}
    ]}
  ]
}
